Target: T1, G6sec2 (Homo sapiens, UniProt Q9BYG0)
T1 construct: made in house; host or cells: Sf21 insect cells infected with pVL1393-F2G6sec2-derived recombinant baculovirus
T1 sequence (Q9BYG0 39-378): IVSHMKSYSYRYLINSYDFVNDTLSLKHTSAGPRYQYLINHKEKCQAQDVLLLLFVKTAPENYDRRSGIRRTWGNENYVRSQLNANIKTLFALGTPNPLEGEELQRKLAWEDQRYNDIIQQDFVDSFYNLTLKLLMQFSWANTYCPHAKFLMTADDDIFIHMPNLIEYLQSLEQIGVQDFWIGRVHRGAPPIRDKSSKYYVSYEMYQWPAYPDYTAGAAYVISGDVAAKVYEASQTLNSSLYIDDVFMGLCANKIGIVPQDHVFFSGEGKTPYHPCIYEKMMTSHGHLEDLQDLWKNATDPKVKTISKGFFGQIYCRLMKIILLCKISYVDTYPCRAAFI
Assay: β1,3-N-acetylglucosaminyltransferase activity using pyridylaminated oligosaccharides as substrates
Assay type: biochemical
Settings: 37° C., 14.5 hours
Procedure: After carrying out the reaction at 37° C. for 14.5 hours in 30 μl of an assay solution [150 mmol/l sodium cacodylate (pH 7.2), 50 mmol/l UDP-GlcNAc (manufactured by SIGMA), 0.4% Triton CF-54, 10 mmol/l MnCl2, 50 μmol/l pyridylaminated sugar chain substrate, a purified enzyme solution (G6sec2)], the product was detected by HPLC. The purified enzyme (G6sec2) was obtained according to the method shown in Example 8(6). The purified enzyme (280 μl) was prepared from 30 ml of a culture supernatant of Sf21 infected with the recombinant virus derived from pVL1393-F2G6sec2, and the assay was carried out using 5 μl thereof. As substrates, LnNT, lacto-N-tetraose (Galβ1-3GlcNAcβ1-3Galβ1-4Glc (hereinafter referred to as “LNT”), lacto-N-fucopentaose II (Galβ1-3(Fucα1-4)GlcNAcβ1-3Galβ1-4Glc; hereinafter referred to as “LNFP-II”), lacto-N-fucopentaose III (Galβ1-4(Fucα1-3)GlcNAcβ1-3Galβ1-4Glc; hereinafter referred to as “LNFP-III”), lacto-N-fucopentaose V (Galβ1-3GlcNAcβ1-3Galβ1-4(Fucα1-3)Glc; hereinafter referred to as “LNFP-V”), and lacto-N-difucohexaose II (Galβ1-3(Fucα1-4)GlcNAcβ1-3Galβ1-4(Fucα1-3)Glc; hereinafter referred to as “LNDFH-II”) (all manufactured by Oxford Glycosystems) were fluorescently-labeled with aminopyridine and used. The substrates were fluorescently-labeled according to a conventional method [Agric. Biol. Chem., 54, 2169 (1990)].
After carrying out the reaction on each substrate using an assay solution containing UDP-GlcNAc (saccharide donor) and an assay solution containing no donor and subsequently analyzing by HPLC, peaks appeared only in the assay solution containing UDP-GlcNAc was defined as products.
The assay solution after completion of the reaction was treated at 100° C. for 5 minutes and then centrifuged at 10,000×g for 5 minutes to obtain a supernatant, and a part thereof (5 μl) was subjected to HPLC.
The HPLC was carried out using TSK-gel ODS-80Ts Column (4.6×300 mm; manufactured by TOSOH) and 0.02 mol/l ammonium acetate buffer (pH 4.0) as the eluant at an elution temperature of 50° C. and a flow rate of 0.5 ml/min.
Detection and determination of products were carried out using a fluorescence spectrophotometer FP-920 (manufactured by JASCO Corporation) (excitation wavelength: 320 nm, radiation wavelength: 400 nm).

## CC(=O)N[C@H]1[C@H](O[C@H]2[C@@H](O)[C@@H](CO)O[C@@H](O[C@H]3[C@H](O)[C@@H](O)C(O)O[C@@H]3CO)[C@@H]2O)O[C@H](CO)[C@@H](O[C@@H]2O[C@H](CO)[C@H](O)[C@H](O)[C@H]2O)[C@@H]1O (mixture of isomers) [LNnT, lacto-N-neotetraose]
Pyridylaminated oligosaccharides 50 μmol/l, LNnT defined as 100%
  Relative activity (%): 100%
Pyridylaminated substrate 50 μmol/l
  conversion efficiency of the substrate into the product: 12.8%

— patent publication US7629150B2, “Transformed cell harboring DNA or RNA encoding sugar chain synthesizing agent having β1,3-N-acetylglucosaminyltransferase activity” (Kyowa Hakko Kirin Co., Ltd., priority 2000, dated 2009)
